Experimental data: US20090259054A1, “Methods and Compositions for the Treatment of Angiogenesis and Macular Degeneration” (The Texas A&M University System, priority 2008, published 2009)
Entries after “also recorded” stand apart in the source; their conditions may differ. Like-named read-outs stand apart in the source and are kept apart here.

Assays:
mice exposed to OIR = test: Mouse oxygen-induced ischemic retinopathy (OIR) model, retinal neovascularization; format: in vivo; conditions: GA 10 mg/kg, P17 mice exposed to OIR, p<0.001
Method: FIG. 9B is a bar graph providing a quantitative assessments of retinal neovascularization in eyes from P17 control and GA-treated mice exposed to OIR. Data in each column are the mean SD values from four eyes of four mice. […] GA concentration was used as 10 mg/kg for this mouse model. Assessment of retinal neovasculature in control (left) and GA-treated (right) mice during OIR.P7 mice were exposed to a cycle of hyperoxia and normoxia, and eyes were removed for appropriate analysis. The abnormal angiogenesis associated with vitreal invasion can be seen as glomeruloid-like tufts of cell (arrow).

AKT = AKT phosphorylation (pSer473) in HUVEC cells (immunoprecipitation, Western blotting); format: cell-based, human; conditions: HUVEC cells with or without VEGF, increasing concentration of GA
Method: (§1) After starvation in ECGM medium without serum overnight, HUVEC cells were washed with 1×PBS twice, followed with incubation in M199 medium. HUVEC cells were then treated with 1 nM of GA and/or 4 nM of VEGF for 5 minutes, then subjected to immunoprecipitation using anti-VEGFR2 antibody. Anti-phosphotyrosine antibody was used for the detection of phosphorylation of the tyrosine residue of VEGFR2. […] Reaction cocktail containing 100 ng of active VEGFR2 was incubated with different concentrations of GA for 5 minutes at room temperature. Substrate peptide cocktail was added to the pre-incubated reaction cocktail/GA compound. After incubation at room temperature for 30 minutes, stop buffer was added to halt the reaction. 25 μl of each reaction was then transferred with 75 μl dH2O per well into a 96-well streptavidin coated plate and incubated at room temperature for 60 minutes. […] The stop solution was added and the plate was detected at 405 nm. […]
HUVEC cells pretreated with or without 4 nM VEGF for 5 min were treated with or without different concentrations of GA for another 5 minutes. […] Anti-cleaved caspase 3 antibody (Santa Cruz Biotech) was used for detecting cleaved caspase 3 and polyADP ribose polymerase (PARP) cleavage was detected by an anti-PARP p85 fragment (Promega) in apoptosis assays.

HUVEC cells = test: Tube formation assay on Matrigel; format: cell-based, human; conditions: for IC50: Homo sapiens, HUVEC
Method: Matrigel (BD Biosciences) were thawed at 4° C. overnight and each well of the prechilled 24-well plates was coated with 100 μl Matrigel and incubated at 37° C. for 45 minutes. HUVEC cells (4×10^4 cells) were added in 1 ml ECGM with various concentrations of gambogic acid. After 12-16 hours of incubation at 37° C., 5% CO2, endothelial cell tube formation was assessed using an OLYMPUS inverted microscope. Tubular structures were quantified by manual counting of low power fields (25×) and percent inhibition was expressed using untreated wells as 100% (t-test, p<0.001).

VEGFR2 = biological target: T1, VEGFR2 (Homo sapiens, UniProt P35968); test: VEGFR2 tyrosine phosphorylation in VEGF stimulated HUVEC cells (immunoprecipitation, Western blotting); format: cell-based; conditions: 1 nM GA, 4 nM VEGF, 5 minutes
T1 construct: endogenous in cells; host or cells: HUVEC
Method: as §1
VEGFR2 is the primary receptor in VEGF signaling pathway that regulates endothelial cell proliferation, migration, differentiation, tube formation, and angiogenesis. […] HUVEC cells were stimulated with VEGF; phosphorylation and activation of VEGFR2 was detected by immunoprecipitation with anti-VEGFR2 (Flk-1) antibody and by Western blotting with anti-pTyr-antibody for phosphorylation of VEGFR2.

VEGF Receptor 2 = biological target: T2, VEGF Receptor 2 (Homo sapiens, UniProt P35968); test: VEGF Receptor 2 inhibition assay (HTScan VEGF receptor 2 kinase assay kit); format: biochemical; conditions: 100 ng active VEGFR2
T2 construct: purchased Cell Signaling Technology
Method: as §1
12.5 μl of the 4× reaction cocktail containing 100 ng VEGF Receptor 2 (supplied from the HTScan® VEGF receptor 2 kinase assay kit, Cell Signaling Technology, USA) was incubated with 12.5 μl/tube of GA for 5 minutes at room temperature. […] The plate was then detected at 405 nm with VERSAMAX microplate reader (Molecular Devices). […]

T1 sequence (P35968 20-1356): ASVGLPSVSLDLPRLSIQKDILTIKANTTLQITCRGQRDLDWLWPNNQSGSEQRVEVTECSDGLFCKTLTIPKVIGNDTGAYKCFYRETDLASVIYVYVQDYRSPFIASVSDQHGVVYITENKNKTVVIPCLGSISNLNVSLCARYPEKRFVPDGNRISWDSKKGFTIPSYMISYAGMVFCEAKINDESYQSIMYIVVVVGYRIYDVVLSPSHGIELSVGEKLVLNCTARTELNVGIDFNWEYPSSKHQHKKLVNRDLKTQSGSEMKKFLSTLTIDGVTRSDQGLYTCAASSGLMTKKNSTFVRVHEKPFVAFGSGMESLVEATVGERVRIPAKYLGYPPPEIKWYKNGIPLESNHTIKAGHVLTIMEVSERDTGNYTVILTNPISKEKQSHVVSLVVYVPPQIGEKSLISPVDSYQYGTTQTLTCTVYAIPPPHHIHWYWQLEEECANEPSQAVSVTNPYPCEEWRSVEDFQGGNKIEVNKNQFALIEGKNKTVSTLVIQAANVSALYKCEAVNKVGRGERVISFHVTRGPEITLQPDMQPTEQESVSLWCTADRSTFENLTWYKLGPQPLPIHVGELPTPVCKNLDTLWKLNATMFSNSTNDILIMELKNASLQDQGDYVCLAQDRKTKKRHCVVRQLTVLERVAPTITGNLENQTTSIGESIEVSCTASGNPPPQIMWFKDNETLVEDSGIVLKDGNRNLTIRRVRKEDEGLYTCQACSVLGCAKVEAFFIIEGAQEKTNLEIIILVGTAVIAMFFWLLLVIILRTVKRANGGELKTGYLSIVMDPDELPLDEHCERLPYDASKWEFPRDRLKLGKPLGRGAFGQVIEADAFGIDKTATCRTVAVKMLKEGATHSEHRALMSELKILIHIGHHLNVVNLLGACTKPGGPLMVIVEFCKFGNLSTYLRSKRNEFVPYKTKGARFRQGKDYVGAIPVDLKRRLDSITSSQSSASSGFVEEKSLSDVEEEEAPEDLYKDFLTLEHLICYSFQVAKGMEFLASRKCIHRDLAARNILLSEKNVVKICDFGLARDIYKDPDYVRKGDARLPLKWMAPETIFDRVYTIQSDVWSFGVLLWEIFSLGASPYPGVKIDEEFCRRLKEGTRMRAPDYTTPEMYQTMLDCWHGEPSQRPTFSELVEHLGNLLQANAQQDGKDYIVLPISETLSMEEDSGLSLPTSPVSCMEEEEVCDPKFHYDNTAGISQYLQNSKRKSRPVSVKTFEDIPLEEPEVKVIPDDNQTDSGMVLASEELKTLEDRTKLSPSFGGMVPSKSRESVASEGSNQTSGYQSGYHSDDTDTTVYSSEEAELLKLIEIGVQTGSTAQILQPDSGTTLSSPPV
T2 sequence (P35968 789-1356 limits assumed): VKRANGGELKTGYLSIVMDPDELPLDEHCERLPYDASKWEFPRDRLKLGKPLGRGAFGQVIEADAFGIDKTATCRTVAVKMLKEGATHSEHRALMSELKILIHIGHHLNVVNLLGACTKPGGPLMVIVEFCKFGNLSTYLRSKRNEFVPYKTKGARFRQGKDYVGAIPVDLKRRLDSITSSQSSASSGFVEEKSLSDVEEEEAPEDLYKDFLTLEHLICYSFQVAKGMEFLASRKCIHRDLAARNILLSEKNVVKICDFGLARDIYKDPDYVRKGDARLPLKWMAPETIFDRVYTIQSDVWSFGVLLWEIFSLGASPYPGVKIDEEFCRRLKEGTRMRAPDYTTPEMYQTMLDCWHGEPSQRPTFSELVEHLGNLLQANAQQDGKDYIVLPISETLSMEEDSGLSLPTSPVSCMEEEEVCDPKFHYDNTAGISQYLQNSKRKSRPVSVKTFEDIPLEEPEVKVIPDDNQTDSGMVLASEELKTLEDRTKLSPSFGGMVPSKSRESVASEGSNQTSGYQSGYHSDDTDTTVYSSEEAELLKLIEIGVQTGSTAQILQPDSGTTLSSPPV

`CC(C)=CCC[C@]1(C)C=Cc2c(O)c3c(c(CC=C(C)C)c2O1)O[C@]12C(=C[C@@H]4C[C@H]1C(C)(C)O[C@@]2(C/C=C(/C)C(=O)O)C4=O)C3=O` [GA, gambogic acid] was tested, and the Retinal neovascularization (mice exposed to OIR) was “significantly inhibits retinal neovascularization; also recorded: significant difference in the degree of neovascularization”, the “Phosphorylation and activation of AKT (pSer473)” value (AKT) was “inhibited AKT phosphorylation and activation” and the “Tube formation ability of HUVECs” value (HUVEC cells; 100 nM GA) was “completely inhibited the tube-forming ability; also recorded: completely inhibited the tube formation ability”. The IC50 (HUVEC cells; 12-16 hours, read-out: Concentration that inhibited tube formation of HUVEC cells by 50%) was roughly 50 nM, the IC50 (HUVEC cells; as printed in the legend of FIG. 3, read-out: Concentration that inhibited 50% tube formation of HUVEC cells) was roughly 50 nM and the “Phosphorylation and activation of VEGFR2 in HUVEC cells” value (VEGFR2) was “dramatically inhibited the phosphorylation of VEGFR2; also recorded: strongly inhibited VEGFR2 kinase activity”. For the same molecule, the IC50 (VEGF Receptor 2) was 0.012 nM.
